Experimental data taken from PubChem BioAssay AID2060483 (Molecular Pharmacology Branch, DTP, NCI, 2025).

System: K24384-001-R-PDC complex spheroids, viability
Experiment: Anticancer human tumor K24384-001-R-PDC patient-derived pancreatic adenocarcinoma cell line growth inhibition [GQUAD]
Settings: for IC50: curve of first compound; for viability, T/C: stronger effect = lower value; active = viability on the fitted dose curve at most 10% of control; inactive = the rest
Summary of the method: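 Viability of tumor cells grown as complex spheroids with endothelial and stromal cells, exposed to drug combinations. Top concentration at or near clinical Cmax (else 10 microM), diluted in half-log increments.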

[1] = second compound 0.0316 µM, first compound 0.0316 µM
[2] = second compound 0.0316 µM, first compound 0.1 µM
[3] = second compound 0.0316 µM, first compound 0.316 µM
[4] = second compound 0.0316 µM, first compound 1 µM
[5] = second compound 0.0316 µM, first compound 3.16 µM
[6] = second compound 0.0316 µM, first compound 10 µM
[7] = second compound 0.1 µM, first compound 0.0316 µM
[8] = second compound 0.1 µM, first compound 0.1 µM
[9] = second compound 0.1 µM, first compound 0.316 µM
[10] = second compound 0.1 µM, first compound 1 µM
[11] = second compound 0.1 µM, first compound 3.16 µM
[12] = second compound 0.1 µM, first compound 10 µM
[13] = second compound 0.316 µM, first compound 0.0316 µM
[14] = second compound 0.316 µM, first compound 0.1 µM
[15] = second compound 0.316 µM, first compound 0.316 µM
[16] = second compound 0.316 µM, first compound 1 µM
[17] = second compound 0.316 µM, first compound 3.16 µM
[18] = second compound 0.316 µM, first compound 10 µM
[19] = second compound 1 µM, first compound 0.0316 µM
[20] = second compound 1 µM, first compound 0.1 µM
[21] = second compound 1 µM, first compound 0.316 µM
[22] = second compound 1 µM, first compound 1 µM
[23] = second compound 1 µM, first compound 3.16 µM
[24] = second compound 1 µM, first compound 10 µM
[25] = second compound 3.16 µM, first compound 0.0316 µM
[26] = second compound 3.16 µM, first compound 0.1 µM
[27] = second compound 3.16 µM, first compound 0.316 µM
[28] = second compound 3.16 µM, first compound 1 µM
[29] = second compound 3.16 µM, first compound 3.16 µM
[30] = second compound 3.16 µM, first compound 10 µM
[31] = second compound 10 µM, first compound 0.0316 µM
[32] = second compound 10 µM, first compound 0.1 µM
[33] = second compound 10 µM, first compound 0.316 µM
[34] = second compound 10 µM, first compound 1 µM
[35] = second compound 10 µM, first compound 3.16 µM
[36] = second compound 10 µM, first compound 10 µM
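Also: spheroids exposed to compounds for seven days.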

COc1ccc([C@@H](O)c2cc(-c3ncnc4cc(N5CCOCC5)ccc34)c(F)cc2Cl)nn1 + Cc1cnc(CNC(=O)c2c(=O)c3ccc(N4CCCN(C)CC4)nc3n3c2sc2ccccc23)cn1
497 nM: IC50 (second compound 0.1 µM)
1240 nM: IC50 (second compound 0.0316 µM)
< 31.6 nM: IC50 (second compound 1 µM) | IC50 (second compound 3.16 µM) | IC50 (second compound 10 µM)
active: viability, T/C [36] 0.52%
inactive: viability, T/C [1] 89.9% | viability, T/C [2] 81.5% | viability, T/C [3] 70.8% | viability, T/C [4] 45.9% | viability, T/C [5] 43.8% | viability, T/C [6] 23.6% | viability, T/C [7] 57.2% | viability, T/C [8] 68.7% | viability, T/C [9] 46.5% | viability, T/C [10] 42.3% | viability, T/C [11] 39.1% | viability, T/C [12] 17.6% | viability, T/C [13] 48.6% | viability, T/C [14] 57.6% | viability, T/C [15] 43.1% | viability, T/C [16] 41.5% | viability, T/C [17] 34% | viability, T/C [18] 12.6% | viability, T/C [19] 40.5% | viability, T/C [20] 59.9% | viability, T/C [21] 35.4% | viability, T/C [22] 34.1% | viability, T/C [23] 21.7% | viability, T/C [24] 12.7% | viability, T/C [25] 36.7% | viability, T/C [26] 41.9% | viability, T/C [27] 33.4% | viability, T/C [28] 29.8% | viability, T/C [29] 24.6% | viability, T/C [30] 10.2% | viability, T/C [31] 28.1% | viability, T/C [32] 29.9% | viability, T/C [33] 27.4% | viability, T/C [34] 27.4% | viability, T/C [35] 16.8%
120 nM: IC50 (second compound 0.316 µM)

C=CCn1c(=O)c2cnc(Nc3ccc(N4CCN(C)CC4)cc3)nc2n1-c1cccc(C(C)(C)O)n1 + Cc1[nH]c2ccc(F)cc2c1-c1nc2c3cccnc3c3ncccc3c2[nH]1
436 nM: IC50 (second compound 0.0316 µM)
192 nM: IC50 (second compound 3.16 µM)
285 nM: IC50 (second compound 0.1 µM)
159 nM: IC50 (second compound 10 µM)
420 nM: IC50 (second compound 0.316 µM)
inactive: viability, T/C [1] 94.8% | viability, T/C [2] 77.8% | viability, T/C [3] 63.1% | viability, T/C [4] 19.3% | viability, T/C [5] 14.9% | viability, T/C [6] 16.6% | viability, T/C [7] 98.7% | viability, T/C [8] 95% | viability, T/C [9] 45.5% | viability, T/C [10] 19.7% | viability, T/C [11] 16.8% | viability, T/C [12] 18.8% | viability, T/C [13] 89.6% | viability, T/C [14] 84.5% | viability, T/C [15] 60.6% | viability, T/C [16] 17% | viability, T/C [17] 18.8% | viability, T/C [18] 15.2% | viability, T/C [19] 79.5% | viability, T/C [20] 71.9% | viability, T/C [21] 43.6% | viability, T/C [22] 17.2% | viability, T/C [23] 18.4% | viability, T/C [24] 16.6% | viability, T/C [25] 73% | viability, T/C [26] 63% | viability, T/C [27] 40% | viability, T/C [28] 13.6% | viability, T/C [29] 21.1% | viability, T/C [30] 19.1% | viability, T/C [31] 79% | viability, T/C [32] 53.2% | viability, T/C [33] 46.2% | viability, T/C [34] 16.3% | viability, T/C [35] 14.5% | viability, T/C [36] 17.1%
241 nM: IC50 (second compound 1 µM)

CC(C)(O)C1CCC(Nc2ccc3ncc(-c4cccc(C(F)(F)F)c4)n3n2)CC1 (stereo not drawn) + CN(C)c1ccc(Nc2c3ccc(NC(=O)CCN4CCCC4)cc3nc3cc(NC(=O)CCN4CCCC4)ccc23)cc1
2380 nM: IC50 (second compound 0.316 µM)
1890 nM: IC50 (second compound 3.16 µM)
2160 nM: IC50 (second compound 1 µM)
inactive: viability, T/C [1] 106% | viability, T/C [2] 106% | viability, T/C [3] 102% | viability, T/C [4] 84.6% | viability, T/C [5] 37.5% | viability, T/C [6] 37.2% | viability, T/C [7] 105% | viability, T/C [8] 104% | viability, T/C [9] 96.4% | viability, T/C [10] 79% | viability, T/C [11] 30.5% | viability, T/C [12] 33.4% | viability, T/C [13] 104% | viability, T/C [14] 98.1% | viability, T/C [15] 98% | viability, T/C [16] 94.6% | viability, T/C [17] 35.4% | viability, T/C [18] 34.3% | viability, T/C [19] 106% | viability, T/C [20] 109% | viability, T/C [21] 109% | viability, T/C [22] 82% | viability, T/C [23] 28.6% | viability, T/C [24] 39.6% | viability, T/C [25] 100% | viability, T/C [26] 101% | viability, T/C [27] 107% | viability, T/C [28] 77.4% | viability, T/C [29] 26.2% | viability, T/C [30] 29.8% | viability, T/C [31] 94.4% | viability, T/C [32] 98% | viability, T/C [33] 77.9% | viability, T/C [34] 61.5% | viability, T/C [35] 16.9% | viability, T/C [36] 16.9%
1240 nM: IC50 (second compound 10 µM)
2350 nM: IC50 (second compound 0.0316 µM)
2030 nM: IC50 (second compound 0.1 µM)

O=C(NO)c1cnc(N2CCN(S(=O)(=O)c3ccc4ccccc4c3)CC2)nc1 + Cc1[nH]c2ccc(F)cc2c1-c1nc2c3cccnc3c3ncccc3c2[nH]1
671 nM: IC50 (second compound 0.1 µM)
858 nM: IC50 (second compound 10 µM)
inactive: viability, T/C [1] 109% | viability, T/C [2] 105% | viability, T/C [3] 87.7% | viability, T/C [4] 23.1% | viability, T/C [7] 96.6% | viability, T/C [8] 103% | viability, T/C [9] 79.2% | viability, T/C [10] 35% | viability, T/C [13] 102% | viability, T/C [14] 94.5% | viability, T/C [15] 88.4% | viability, T/C [16] 40.5% | viability, T/C [19] 105% | viability, T/C [20] 107% | viability, T/C [21] 101% | viability, T/C [22] 52.3% | viability, T/C [25] 75.6% | viability, T/C [26] 110% | viability, T/C [27] 88.7% | viability, T/C [28] 44.7% | viability, T/C [31] 71.5% | viability, T/C [32] 95.8% | viability, T/C [33] 82.7% | viability, T/C [34] 44.9%
active: viability, T/C [5] 0.14% | viability, T/C [6] 0.17% | viability, T/C [11] 0.16% | viability, T/C [12] 0.15% | viability, T/C [17] 0.1% | viability, T/C [18] 0.12% | viability, T/C [23] 0.16% | viability, T/C [24] 0.12% | viability, T/C [29] 0.18% | viability, T/C [30] 0.14% | viability, T/C [35] 0.22% | viability, T/C [36] 0.17%
787 nM: IC50 (second compound 0.316 µM)
618 nM: IC50 (second compound 0.0316 µM)
871 nM: IC50 (second compound 3.16 µM)
1050 nM: IC50 (second compound 1 µM)
